From paper PMC5218480 (PLoS ONE, 2017) come the findings set out here.

The experiment has as its system MV-4-11 cells. Kind of experiment: Gene expression microarray analysis (Affymetrix PrimeView) and GSEA. The class given is cell-based, human. More on the design: RFU PODN (11730768_x_at) / Fold change /veh PODN (11730768_x_at) / RFU LINC00158 (11744669_a_at) / Fold change /veh LINC00158 (11744669_a_at) / RFU DUSP10 (11751237_a_at) / Fold change /veh DUSP10 (11751237_a_at) / RFU ID3 (11757404_x_at) / Fold change /veh ID3 (11757404_x_at) / RFU PLEKHG5 (11737974_s_at) / Fold change /veh PLEKHG5 (11737974_s_at) / RFU LRRC4B (11730491_at) / Fold change /veh LRRC4B (11730491_at) / RFU GIMAP4 (11747438_a_at) / Fold change /veh GIMAP4 (11747438_a_at) / RFU KRT8 (11758183_x_at) / Fold change /veh KRT8 (11758183_x_at) / RFU CNN1 (11734310_a_at) / Fold change /veh CNN1 (11734310_a_at) / RFU VPS37D (11726825_at) / Fold change /veh VPS37D (11726825_at) / RFU C10orf10 (11716522_x_at) / Fold change /veh C10orf10 (11716522_x_at) / RFU KIR2DL2 /// KIR2DL4 /// KIR2DL5A /// KIR2DL5B /// KIR2DS1 /// KIR2DS2 /// KIR2DS3 /// KIR2DS4 /// KIR3DL3 /// KIR3DL3 /// KIR3DS1 (11738374_at) / Fold change /veh KIR2DL2 /// KIR2DL4 /// KIR2DL5A /// KIR2DL5B /// KIR2DS1 /// KIR2DS2 /// KIR2DS3 /// KIR2DS4 /// KIR3DL3 /// KIR3DL3 /// KIR3DS1 (11738374_at) / RFU C1QL1 (11718748_at) / Fold change /veh C1QL1 (11718748_at) / RFU TMPRSS4 (11747572_a_at) / Fold change /veh TMPRSS4 (11747572_a_at) / RFU HAMP (11756126_x_at) / Fold change /veh HAMP (11756126_x_at) / RFU RNFT2 (11725882_a_at) / Fold change /veh RNFT2 (11725882_a_at) / RFU NR4A2 (11747474_a_at) / Fold change /veh NR4A2 (11747474_a_at) / RFU ABCC12 (11746883_a_at) / Fold change /veh ABCC12 (11746883_a_at) / RFU TMEM136 (11760407_x_at) / Fold change /veh TMEM136 (11760407_x_at) / RFU CLDN22 /// WWC2 (11732394_at) / Fold change /veh CLDN22 /// WWC2 (11732394_at) / RFU HLA-DPB1 (11760878_x_at) / Fold change /veh HLA-DPB1 (11760878_x_at) / RFU SPINT1 (11716480_a_at) / Fold change /veh SPINT1 (11716480_a_at) / RFU GAP43 (11754022_s_at) / Fold change /veh GAP43 (11754022_s_at) / RFU A4GNT (11735810_at) / Fold change /veh A4GNT (11735810_at) / RFU PRB3 (11715151_x_at) / Fold change /veh PRB3 (11715151_x_at) / RFU TUBB4B (11761932_at) / Fold change /veh TUBB4B (11761932_at) / RFU CAPN14 (11732068_a_at) / Fold change /veh CAPN14 (11732068_a_at) / RFU TMCC2 (11721928_a_at) / Fold change /veh TMCC2 (11721928_a_at) / RFU IRGQ (11745062_a_at) / Fold change /veh IRGQ (11745062_a_at) / RFU FAM174B (11720279_a_at) / Fold change /veh FAM174B (11720279_a_at) / RFU TMPRSS4 (11748680_a_at) / Fold change /veh TMPRSS4 (11748680_a_at) / RFU FAM212B (11763350_a_at) / Fold change /veh FAM212B (11763350_a_at) / RFU PLEKHG5 (11743358_a_at) / Fold change /veh PLEKHG5 (11743358_a_at) / RFU ZSCAN30 (11745921_a_at) / Fold change /veh ZSCAN30 (11745921_a_at) / RFU CMKLR1 (11741424_a_at) / Fold change /veh CMKLR1 (11741424_a_at) / RFU LOC101060620 /// MAPK8IP1 (11723275_at) / Fold change /veh LOC101060620 /// MAPK8IP1 (11723275_at) / RFU SPTSSB (11747773_x_at) / Fold change /veh SPTSSB (11747773_x_at) / RFU PRSS12 (11739890_at) / Fold change /veh PRSS12 (11739890_at) / RFU BIN1 (11741810_x_at) / Fold change /veh BIN1 (11741810_x_at) / RFU WNT11 (11732464_a_at) / Fold change /veh WNT11 (11732464_a_at) / RFU C10orf10 (11716521_a_at) / Fold change /veh C10orf10 (11716521_a_at) / RFU C5orf56 (11738089_at) / Fold change /veh C5orf56 (11738089_at) / RFU CYB561 (11721691_x_at) / Fold change /veh CYB561 (11721691_x_at) / RFU ANKRD19P (11752326_a_at) / Fold change /veh ANKRD19P (11752326_a_at) / RFU OR2T12 /// OR2T33 /// OR2T8 (11738714_s_at) / Fold change /veh OR2T12 /// OR2T33 /// OR2T8 (11738714_s_at) / RFU VCAN (11748164_a_at) / Fold change /veh VCAN (11748164_a_at) / RFU JSRP1 (11732532_at) / Fold change /veh JSRP1 (11732532_at) / RFU KRTAP10-11 (11738290_x_at) / Fold change /veh KRTAP10-11 (11738290_x_at) / RFU MYO3A (11730013_a_at) / Fold change /veh MYO3A (11730013_a_at) / RFU EBF3 (11725865_a_at) / Fold change /veh EBF3 (11725865_a_at) / RFU CAMK2N1 (11719241_x_at) / Fold change /veh CAMK2N1 (11719241_x_at) / RFU C5orf56 (11738088_a_at) / Fold change /veh C5orf56 (11738088_a_at) / RFU OLFML3 (11715873_a_at) / Fold change /veh OLFML3 (11715873_a_at) / RFU LOC100653217 /// NTM (11731650_a_at) / Fold change /veh LOC100653217 /// NTM (11731650_a_at) / RFU MAPK11 (11762145_a_at) / Fold change /veh MAPK11 (11762145_a_at) / RFU FIZ1 (11724087_x_at) / Fold change /veh FIZ1 (11724087_x_at) / RFU OASL (11726364_x_at) / Fold change /veh OASL (11726364_x_at) / RFU SOX15 (11748057_x_at) / Fold change /veh SOX15 (11748057_x_at) / RFU CD79A (11719716_a_at) / Fold change /veh CD79A (11719716_a_at) / RFU HIST1H1D (11736915_at) / Fold change /veh HIST1H1D (11736915_at) / RFU CASKIN2 (11723855_a_at) / Fold change /veh CASKIN2 (11723855_a_at) / RFU LOC730098 (11760151_x_at) / Fold change /veh LOC730098 (11760151_x_at) / RFU OR4N2 (11742367_at) / Fold change /veh OR4N2 (11742367_at) / RFU PRRT2 (11749266_a_at) / Fold change /veh PRRT2 (11749266_a_at) / RFU SNX32 (11753110_a_at) / Fold change /veh SNX32 (11753110_a_at) / RFU CDHR5 (11726645_a_at) / Fold change /veh CDHR5 (11726645_a_at) / RFU RCAN1 (11760418_a_at) / Fold change /veh RCAN1 (11760418_a_at) / RFU FAM167A (11723789_a_at) / Fold change /veh FAM167A (11723789_a_at) / RFU FAM26E (11764081_at) / Fold change /veh FAM26E (11764081_at) / RFU ISYNA1 (11749810_s_at) / Fold change /veh ISYNA1 (11749810_s_at) / RFU ACY1 (11761880_at) / Fold change /veh ACY1 (11761880_at) / RFU 11764098_at / Fold change /veh 11764098_at / RFU SAMD14 (11745864_x_at) / Fold change /veh SAMD14 (11745864_x_at) / RFU NPB (11741838_a_at) / Fold change /veh NPB (11741838_a_at) / RFU TMPRSS6 (11731388_a_at) / Fold change /veh TMPRSS6 (11731388_a_at) / RFU KRTAP10-2 (11738614_at) / Fold change /veh KRTAP10-2 (11738614_at) / RFU ARHGAP8 /// PRR5-ARHGAP8 (11727945_x_at) / Fold change /veh ARHGAP8 /// PRR5-ARHGAP8 (11727945_x_at) / RFU KRTAP5-7 /// NADSYN1 (11734609_at) / Fold change /veh KRTAP5-7 /// NADSYN1 (11734609_at) / RFU RASL12 (11751679_a_at) / Fold change /veh RASL12 (11751679_a_at) / RFU CDKN2B (11736163_a_at) / Fold change /veh CDKN2B (11736163_a_at) / RFU PRF1 (11729649_at) / Fold change /veh PRF1 (11729649_at) / RFU, ZNF638 /// ZNF638-IT1 / Fold change vs veh, ZNF638 /// ZNF638-IT1 / RFU, PANK3 / Fold change vs veh, PANK3 / RFU, SH3YL1 / Fold change vs veh, SH3YL1 / RFU, ZEB2 / Fold change vs veh, ZEB2 / RFU, NRIP1 / Fold change vs veh, NRIP1 / RFU, PTTG1IP / Fold change vs veh, PTTG1IP / RFU, CAPN2 / Fold change vs veh, CAPN2 / RFU, MED14 / Fold change vs veh, MED14 / RFU, SNORA58 / Fold change vs veh, SNORA58 / RFU, C1orf63 / Fold change vs veh, C1orf63 / RFU, LRRFIP1 / Fold change vs veh, LRRFIP1 / RFU, NDUFAF7 / Fold change vs veh, NDUFAF7 / RFU, SLC12A2 / Fold change vs veh, SLC12A2 / RFU, IBTK / Fold change vs veh, IBTK / RFU, ESF1 / Fold change vs veh, ESF1 / Fold change vs veh, TMEM50B / RFU, TAOK1 / Fold change vs veh, TAOK1 / RFU, ACBD3 / Fold change vs veh, ACBD3 / RFU, TMA16 / Fold change vs veh, TMA16 / RFU, RWDD3 / Fold change vs veh, RWDD3 / RFU, BCAT1 / Fold change vs veh, BCAT1 / RFU, EDEM3 / Fold change vs veh, EDEM3 / RFU, TMEM33 / Fold change vs veh, TMEM33 / RFU, WDR75 / Fold change vs veh, WDR75 / RFU, AHCTF1 / Fold change vs veh, AHCTF1 / RFU, TFRC / Fold change vs veh, TFRC / RFU, ZDHHC17 / Fold change vs veh, ZDHHC17 / RFU, NOM1 / Fold change vs veh, NOM1 / RFU, ARL8B / Fold change vs veh, ARL8B / RFU, ZBTB11 / Fold change vs veh, ZBTB11 / RFU, TAMM41 / Fold change vs veh, TAMM41 / RFU, KIAA1704 /// LOC100996395 / Fold change vs veh, KIAA1704 /// LOC100996395 / RFU, ING1 / Fold change vs veh, ING1 / RFU, TRMT61B / Fold change vs veh, TRMT61B / RFU, FUBP3 / Fold change vs veh, FUBP3 / RFU, TP53 / Fold change vs veh, TP53 / RFU, TNKS2 / Fold change vs veh, TNKS2 / RFU, ZFP14 / Fold change vs veh, ZFP14 / RFU, ACTR2 / Fold change vs veh, ACTR2 / RFU, PPP3R1 / Fold change vs veh, PPP3R1 / RFU, PIK3R1 / Fold change vs veh, PIK3R1 / RFU, HNRNPA1 / Fold change vs veh, HNRNPA1 / RFU, RNF170 / Fold change vs veh, RNF170 / RFU, ZNF28 / Fold change vs veh, ZNF28 / RFU, RNGTT / Fold change vs veh, RNGTT / RFU, OGT / Fold change vs veh, OGT / RFU, BRD1 / Fold change vs veh, BRD1 / RFU, MARS / Fold change vs veh, MARS / RFU, ZNF655 / Fold change vs veh, ZNF655 / RFU, FAHD1 / Fold change vs veh, FAHD1 / RFU, BDP1 / Fold change vs veh, BDP1 / RFU, LRRCC1 / Fold change vs veh, LRRCC1 / RFU, ARID1A / Fold change vs veh, ARID1A / RFU, ZNF146 / Fold change vs veh, ZNF146 / RFU, ZNF330 / Fold change vs veh, ZNF330 / RFU, GPN3 / Fold change vs veh, GPN3 / RFU, C9orf123 / Fold change vs veh, C9orf123 / RFU, N4BP2L2 / Fold change vs veh, N4BP2L2 / RFU, ARFIP1 / Fold change vs veh, ARFIP1 / RFU, FAM179B / Fold change vs veh, FAM179B / RFU, BCL10 / Fold change vs veh, BCL10 / RFU, UHRF1BP1L / Fold change vs veh, UHRF1BP1L / RFU, BET1 / Fold change vs veh, BET1 / RFU, CNOT2 / Fold change vs veh, CNOT2 / RFU, ZNF268 / Fold change vs veh, ZNF268 / Fold change vs veh, ZNF507 / RFU, DGCR2 / Fold change vs veh, DGCR2 / RFU, WDSUB1 / Fold change vs veh, WDSUB1 / Fold change vs veh, HSP90B1 /// MIR3652 / RFU, ADSS / Fold change vs veh, ADSS / RFU, GK / Fold change vs veh, GK / RFU, ZNF148 / Fold change vs veh, ZNF148 / RFU, TAF9 / Fold change vs veh, TAF9 / RFU, SLC1A5 / Fold change vs veh, SLC1A5 / RFU, SLMO2 / Fold change vs veh, SLMO2 / RFU, ABCC4 / Fold change vs veh, ABCC4 / RFU, LOC101060439 /// RAP1B / Fold change vs veh, LOC101060439 /// RAP1B / RFU, RFX7 / Fold change vs veh, RFX7 / RFU, GTPBP10 / Fold change vs veh, GTPBP10 / RFU, CNEP1R1 / Fold change vs veh, CNEP1R1 / RFU, BIVM-ERCC5 /// ERCC5 / Fold change vs veh, BIVM-ERCC5 /// ERCC5 / RFU, ILF3 / Fold change vs veh, ILF3 / RFU 11762660_at / Fold change /veh 11762660_at / RFU VCAN (11757783_s_at) / Fold change /veh VCAN (11757783_s_at) / RFU DDX43 (11728927_at) / Fold change /veh DDX43 (11728927_at) / RFU KRT8 (11758188_x_at) / Fold change /veh KRT8 (11758188_x_at) / RFU NKD1 (11759106_at) / Fold change /veh NKD1 (11759106_at) / RFU SRD5A1 (11742802_a_at) / Fold change /veh SRD5A1 (11742802_a_at) / RFU TPSAB1 /// TPSB2 (11721975_s_at) / Fold change /veh TPSAB1 /// TPSB2 (11721975_s_at) / RFU GSTM3 (11746129_a_at) / Fold change /veh GSTM3 (11746129_a_at) / RFU IL23R (11737362_x_at) / Fold change /veh IL23R (11737362_x_at) / RFU TMEM51 (11727254_a_at) / Fold change /veh TMEM51 (11727254_a_at) / RFU PIWIL2 (11732686_x_at) / Fold change /veh PIWIL2 (11732686_x_at) / RFU ORM1 (11744905_x_at) / Fold change /veh ORM1 (11744905_x_at) / RFU CCDC152 (11743942_at) / Fold change /veh CCDC152 (11743942_at) / RFU ECM1 (11717891_a_at) / Fold change /veh ECM1 (11717891_a_at) / RFU IL23R (11748794_a_at) / Fold change /veh IL23R (11748794_a_at) / RFU TNFAIP8L3 (11732012_x_at) / Fold change /veh TNFAIP8L3 (11732012_x_at) / RFU MBOAT4 (11741988_at) / Fold change /veh MBOAT4 (11741988_at) / RFU 11764193_at / Fold change /veh 11764193_at / RFU TMEM53 (11763286_at) / Fold change /veh TMEM53 (11763286_at) / RFU MAGEB2 (11727129_at) / Fold change /veh MAGEB2 (11727129_at) / RFU TMEM200A (11744735_a_at) / Fold change /veh TMEM200A (11744735_a_at) / RFU CCDC152 (11751479_a_at) / Fold change /veh CCDC152 (11751479_a_at) / RFU FAM211A (11726209_a_at) / Fold change /veh FAM211A (11726209_a_at) / RFU RGS16 (11746705_a_at) / Fold change /veh RGS16 (11746705_a_at) / RFU VCAN (11755009_s_at) / Fold change /veh VCAN (11755009_s_at) / RFU RHOB (11743442_s_at) / Fold change /veh RHOB (11743442_s_at) / RFU RGS16 (11720943_a_at) / Fold change /veh RGS16 (11720943_a_at) / RFU RGS16 (11720944_at) / Fold change /veh RGS16 (11720944_at) / RFU, VPS4B / Fold change vs veh, VPS4B / RFU, CREB1 / Fold change vs veh, CREB1 / RFU, DNAJC13 / Fold change vs veh, DNAJC13 / RFU, GNAQ / Fold change vs veh, GNAQ / RFU, CDK5R1 / Fold change vs veh, CDK5R1 / RFU, ZRANB3 / Fold change vs veh, ZRANB3 / RFU, CUL4A / Fold change vs veh, CUL4A / RFU, CCNY / Fold change vs veh, CCNY / RFU, UFL1 / Fold change vs veh, UFL1 / RFU, COG3 / Fold change vs veh, COG3 / RFU, DIAPH2 / Fold change vs veh, DIAPH2 / RFU, SKA2 / Fold change vs veh, SKA2 / RFU, AFF3 / Fold change vs veh, AFF3 / RFU, LMF1 / Fold change vs veh, LMF1 / RFU, IPO11 / Fold change vs veh, IPO11 / RFU, DFFB / Fold change vs veh, DFFB / RFU, FOXP1 / Fold change vs veh, FOXP1 / RFU, CARD8 / Fold change vs veh, CARD8 / RFU, STRN3 / Fold change vs veh, STRN3 / RFU, ADK / Fold change vs veh, ADK / RFU, RASSF2 / Fold change vs veh, RASSF2 / RFU, WIPF1 / Fold change vs veh, WIPF1 / RFU, LARP1B / Fold change vs veh, LARP1B / RFU, RASA1 / Fold change vs veh, RASA1 / RFU, RB1 / Fold change vs veh, RB1 / RFU, PPFIA1 / Fold change vs veh, PPFIA1 / RFU, MAT2A / Fold change vs veh, MAT2A / RFU, CCT5 / Fold change vs veh, CCT5 / RFU, WDR92 / Fold change vs veh, WDR92 / RFU, CUX1 / Fold change vs veh, CUX1 / RFU, TTC7A / Fold change vs veh, TTC7A / RFU, TMEM135 / Fold change vs veh, TMEM135 / RFU, DEPTOR / Fold change vs veh, DEPTOR / RFU, CPM / Fold change vs veh, CPM / RFU, DNAJB6 / Fold change vs veh, DNAJB6 / RFU, CACNA2D3 / Fold change vs veh, CACNA2D3 / RFU, DTX4 / Fold change vs veh, DTX4 / RFU, TFCP2 / Fold change vs veh, TFCP2 / RFU, GMCL1 /// GMCL1P1 / Fold change vs veh, GMCL1 /// GMCL1P1 / RFU, AEBP2 / Fold change vs veh, AEBP2 / RFU, SNHG1 /// SNORD22 /// SNORD25 /// SNORD26 /// SNORD27 /// SNORD28 /// SNORD29 /// SNORD31 / Fold change vs veh, SNHG1 /// SNORD22 /// SNORD25 /// SNORD26 /// SNORD27 /// SNORD28 /// SNORD29 /// SNORD31 / Fold change (Aza/veh), C12orf56 (ProbeSet 11735607_a_at) / Fold change (ACY-1035/veh), C12orf56 (ProbeSet 11735607_a_at) / Fold change (Aza/veh), FGFR1OP (ProbeSet 11751329_s_at) / Fold change (ACY-1035/veh), FGFR1OP (ProbeSet 11751329_s_at) / Fold change (Aza/veh), VPS36 (ProbeSet 11739960_a_at) / Fold change (ACY-1035/veh), VPS36 (ProbeSet 11739960_a_at) / RFU SYPL1 (11715823_x_at) / Fold change /veh SYPL1 (11715823_x_at) / RFU IGFBP7 (11715501_s_at) / Fold change /veh IGFBP7 (11715501_s_at) / RFU REEP3 (11722064_at) / Fold change /veh REEP3 (11722064_at) / RFU IGLL1 (11728026_x_at) / Fold change /veh IGLL1 (11728026_x_at): dose or concentration left out as unconfirmed. The settings on record: MV-4-11 cells, 48 hours.

Turning to `Nc1ncn([C@@H]2O[C@H](CO)[C@@H](O)[C@H]2O)c(=O)n1` [azacitidine], the “Fold change /veh IRGQ (11745062_a_at)” value is 1.17.
